How the values were obtained:
[1] = test system: RNA biosynthesis in S. carnosus TM300; experiment: Macromolecular synthesis assay: 3H-uridine incorporation into RNA; format: cell-based, Staphylococcus carnosus; conditions: S. carnosus TM300, 2× MIC, three independent experiments
Procedure: (§1) Radiolabel incorporation experiments were carried out similarly as previously described but using S. carnosus ([Wu et al., 2019]). The OD600 of parallel nonradioactive cultures was measured at each time point to normalize the measured radioactivity and minimize effects due to cell death and growth inhibition. The radiolabeled reagents and their corresponding positive and negative antibiotic controls were as follows. […] All experiments were conducted independently three times.
(§2) Figure S3. Thre e in de pen den t ex perime nts of incorporation of (A) 14C- acetic acid into fatty acids, (B) 14C- thymi din e into D NA, (C) 3H-uridi ne into RNA, (D) 14C- lab el ed ami no acids into protei n, and (E) 14C- label ed GlcNAc into cell w all in S. carnosus TM300 cells treated with vario u s antimicro bia l agents. T he p ercent i nco rpo ratio n at 0 min was measured after incubati ng the cel l cultur e with 0.8 μCi/mL radioactive precursors for 15 min. Then 0.5x, 1x, 2x, or 4x MIC epilanci n 15X and 2x MIC controls were added to the cell cultur e (t=0), and t he percent incorporation was measur ed ov er time. Positive controls a re gr een and negative controls are black (cells o nly) an d blu e (co mpo und w ith mo d e o f actio n unr elate d to th e a ssay i n que stio n). […]

[2] = test system: cell wall biosynthesis in S. carnosus TM300; experiment: Macromolecular synthesis assay: 14C-N-acetyl-D-glucosamine incorporation into cell wall; format: cell-based, Staphylococcus carnosus; conditions: S. carnosus TM300, three independent experiments
Procedure: as §1, §2

[3] = test system: S. epidermidis ATCC 12228; experiment: MIC determination in 96-well microtiter plate; format: cell-based, Staphylococcus epidermidis; conditions: 37°C, 10^5 CFU/mL, OD600 after 18 h
[4] = test system: B. subtilis BSF2470 (1A980); experiment: Killing kinetics (CFU counting); format: cell-based, Bacillus subtilis
Procedure: S. carnosus TM300 and B. subtilis BSF2470 (1A980) cell cultures were grown to mid-log phase in BHI and LB broth, respectively. […] At each time point, an aliquot of […] treated-culture was serial-diluted and placed on BHI agar plates for S. carnosus and LB agar plates for B. subtilis. The plates were grown for 1 day at 37°C and the colonies were counted. Each experiment was performed in triplicate and untreated cell culture was used as the negative control.

[5] = test system: DNA biosynthesis in S. carnosus TM300; experiment: Macromolecular synthesis assay: 14C-thymidine incorporation into DNA; format: cell-based, Staphylococcus carnosus; conditions: S. carnosus TM300, 2× MIC, three independent experiments
Procedure: as §1, §2

S. carnosus TM300 = experiment: MIC determination in 96-well microtiter plate; format: cell-based, Staphylococcus carnosus; conditions: BHI, 37°C, 10^5 CFU/mL, OD600 after 18 h
Procedure: MIC determination was performed in a 96-well microtiter plate as described previously ([Wu et al., 2019]). Sensitive bacterial culture was grown in the appropriate medium (BHI for S. carnosus; LB for B. subtilis) at 37°C overnight. The culture was diluted to 10^5 CFU/mL in medium in each well. Epilancin 15X or its analog was dissolved in water and serially diluted to obtain final concentrations of 20, 10, 5, 2.5, 1.25, 0.625, 0.3125, 0.156, 0.078, 0.039, 0.019, and 0.009 μM. OD600 readings were obtained after 18 h using a Synergy H4 Hybrid Multi-Mode Microplate Reader (BioTeK). Cell-free untreated medium, and untreated cell culture were used as negative controls. The MIC of nisin against B. subtilis BSF2470 was determined following the same methods.

[6] = Liposome permeabilization (sulforhodamine B dye leakage) assay; format: biochemical
Procedure: For unilamellar liposome preparation, a total of 100 μL of 30 mM 1,2-dioleoyl-sn-glycero-3-phosphocholine (DOPC; Avanti Polar Lipids) and the following lipids dissolved in chloroform were mixed in a glass tube in the appropriate ratio: POPG (Avanti Polar Lipids), POPE (Avanti Polar Lipids), POPS (Avanti Polar Lipids), and purified S. aureus LTA (InvivoGen, catalog # tlrl-pslta). The solvent was evaporated under a stream of nitrogen gas and the glass vial was placed in a vacuum desiccator overnight. A total of 1 mL HEPES-Buffered Saline (HBS) composed of 5 mM HEPES (pH 7.6) and 150 mM NaCl, and 30 mM sulforhodamine B (SRB) was added to each vial. The lipid solution was vortexed for 10 min and lipids were hydrated by five freeze–thaw cycles with liquid N2. The lipid solution was diluted with HBS buffer to 3 mL and the solution was passed 29 times through a mini extruder (Avanti Polar Lipids) with a filter of […] pore diameter to form lipid vesicles of homogeneous size. The extruded solution was passed through Sephadex 50 resin to remove the free sulforhodamine B (liposomes eluted faster than the dye). The size of the liposomes was tested using dynamic light scattering (DLS, Malvern Zetasizer, Dr. Catherine J. Murphy lab, Department of Chemistry, UIUC) and analyzed using Zetasizer software. The DLS data quality was interpreted by the instrument through its embedded algorithm to confirm the data quality. The polydispersity index (PDI), which measures the size distributions was used to monitor the quality of the liposomes. The small PDI indices obtained from DLS readings indicate that the liposomes were monodisperse ([Farkas and Kramar, 2021]). The total lipid concentration was measured with NMR spectroscopy using a reported method ([Hein et al., 2016]). The vesicles were stored at 4°C and used within 1–2 days.
For the dye leakage assay, 100 μL SRB-loaded liposomes (80 μM lipid; 100–200 nm size) were placed in each well in a 96-well microplate. Fluorescence of SRB-loaded liposomes was monitored over time on a Synergy H4 Hybrid Multi-Mode Microplate Reader (BioTeK) using λEx at […]. To each well, a different concentration of peptides or 0.02% triton X-100 was added 5 min after adding liposomes. Liposomes supplied with water were treated as the negative control. The fluorescence emission was measured every 15 s for 2 h. Fluorescence counts were recorded as % leakage and plotted as a function of time. The concentration of epilancin 15X where the SRB leaked from the liposomes reached half of the triton X-100 leakage was recorded as C1/2, and C1/2 values were plotted against DOPC and supplemented lipid concentrations.

Epilancin 15X
RNA biosynthesis (3H-uridine incorporation) [1]: considerably stronger effect than that observed with the respective negative controls
cell wall biosynthesis (14C-N-acetyl-D-glucosamine incorporation) [2]: no clear change
MIC [3]: 0.62 µM
growth (colonies) after treatment ([4]; B. subtilis BSF2470, 4x MIC, 90 and 120 minutes, at the dilution factor plated): no growth was observed
number of colony forming units (CFU) ([4]; B. subtilis BSF2470, mid-log, 1x and 4x MIC, 30-180 min, triplicate): significant decrease
DNA biosynthesis (14C-thymidine incorporation) [5]: considerably stronger effect than that observed with the respective negative controls
MIC (S. carnosus TM300): 0.16 µM
EC50 ([6]; DOPC liposomes supplemented with POPE, highest concentration tested 64 µM, read-out: C1/2 (concentration giving 50% of triton X-100 leakage)): > 64 µM
fluorescence emission from SRB dye leakage ([6]; DOPC liposomes with negatively charged lipids LTA, POPS, POPG): increased
SRB dye leakage from DOPC liposomes ([6]; DOPC only, 80 μM lipid, epilancin 15X up to 64 μM, fluorescence over 2 h): not detected
C1/2 values as a function of supplemented lipid concentration ([6]; negatively charged lipids S. aureus LTA, POPG, POPS): negative slope
SRB dye leakage from DOPC liposomes doped with POPE ([6]; neutral lipid POPE): not detected
liposome leakage as a function of supplemented lipid concentration ([6]; neutral lipids POPC and POPE): no change in liposome leakage

Reference: article PMC10652874, “Investigation into the mechanism of action of the antimicrobial peptide epilancin 15X” (Frontiers in Microbiology, 2023)
